Source: PMC8138767, “Intrinsically disordered substrates dictate SPOP subnuclear localization and ubiquitination activity” (The Journal of Biological Chemistry, 2021)
Entries after “also recorded” stand apart in the source; their conditions may differ.

Assays:
SPOP = conditions: previously described, no reference given; cited from earlier work
Description: SPOP derives its name from the […]. Specifically, SPOP colocalizes with nuclear speckles but has also been reported in other subnuclear compartments ([24], [26]). The nuclear speckles that house SPOP in the absence of high concentrations of substrate are liquid-like in nature ([21]). The SPOP substrate DAXX typically localizes to promyelocytic leukemia bodies ([27]).

V5-SPOP in HeLa cells = experiment: Immunofluorescence: V5-SPOP localization on coexpression of GFP–Pdx1 variants; assay type: cell-based; conditions: 24 h after transfection; for V5-SPOP localization, high Pdx1 expression: cells expressing GFP–Pdx1 at high levels (high GFP intensity); for V5-SPOP localization, low Pdx1 expression: cells expressing GFP–Pdx1 at low levels; for SPOP relocalization from nuclear speckles by Pdx1 variant: coexpressed with V5-SPOP, three biological replicates
Protocol: (§1) HeLa cells were cultured under sterile conditions with Dulbecco’s modified Eagle’s medium (DMEM) (Gibco) supplemented with 10% fetal bovine serum and antibiotics/antimycotics (Gibco) (see Table S5 for key reagents and resources). T-REx-293 cells (cat. no. R710-07) were obtained from Invitrogen. Cells were grown on DMEM supplemented with 10% fetal bovine serum (Gibco), GlutaMax (Gibco), and Penicillin-Streptomycin (Gibco) and kept under selection by 5 μg/ml blasticidin. All cells were grown at 37 °C under 5% CO2 and were mycoplasma free at the time the experiments were performed.
(§2) A plasmid encoding full-length human Pdx1 (amino acids 1-283) in pcDNA3.1 with a C-terminal GFP tag was purchased from GenScript. Full-length mouse SPOP (identical to the human sequence) with a V5 epitope tag in pcDNA3 was generated previously ([21]). The coding sequence for full-length mouse SPOP was inserted into pcDNA4/TO/myc (Invitrogen) for the T-REx system. pcDNA3-myc-CUL3 (cat no. 19893) and pcDNA–HA2–ROC1 (Rbx1) (cat no. 19897) were obtained from Addgene. pcDNA3 containing His-ubiquitin was a gift from Wenyi Wei.
For immunofluorescence experiments, 0.5 × 10^6 cells were seeded on borosilicate glass coverslips in 6-well plates. After 24 h, cells were transfected with 400 ng of each plasmid using the Qiagen Effectene transfection reagent according to the manufacturer protocol. 24 h after transfection, the cells were treated with 4% paraformaldehyde in PBS for 30 min at RT. Cells were permeabilized with 0.1% Triton X-100 in PBS (PBST) for 5 min at 21 °C, followed by blocking in 0.5% BSA in PBST for 1 h at 21 °C. Signal from GFP-tagged proteins was observed directly. Cells were stained in primary antibodies diluted in 0.5% BSA in PBST overnight at 4 °C with mouse anti-SC-35 (1:300, ab11826; Abcam) and chicken anti-V5 (1:300, NB600-379; Novus Biologicals). Cells were incubated with secondary antibodies for 2 h at 21 °C. The secondary antibodies used were goat anti-mouse Alexa Fluor 647 (1:250, A-21235; Thermo Fisher) and goat anti-chicken Alexa Fluor 555 (1:250, A-21437; Thermo Fisher). Cells on coverslips were treated with 300 nM 4′,6-diamidino-2-phenylindole (DAPI) for 5 min at 21 °C. Coverslips were mounted on glass slides with ProLong Diamond mounting reagent (Thermo Fisher) and cured before imaging on a Zeiss LSM 880 Upright microscope. All images were analyzed and prepared in Fiji ([53]).
All immunofluorescence data were averaged over three biological replicates. Cells not expressing both Pdx1 and SPOP were excluded from sampling. Raw images were collected in the Zeiss Zen software and then exported for viewing and analysis in Fiji. Nuclei of individual cells were designated manually in Fiji using the DAPI channel as a guide. The cells were binned based on whether SPOP was localized to nuclear speckles (puncta); cells with both diffuse and punctate SPOP signal were binned as “speckled.” The grayscale signal intensity of the green channel (Pdx1–GFP) was averaged over the DAPI-designated nuclear area. Next, the raw GFP intensity data points (one data point per cell analyzed) were plotted to generate a violin plot distribution. The average, minimum, and maximum values are shown by horizontal lines on the plot. Individual data points are also shown for rigor. […] All plotting and statistical tests were performed using in-house python scripts that can be found at https://github.com/idpemery/spop-pdx1.

HeLa cells = experiment: Immunofluorescence: subcellular localization / phase separation of the protein itself; assay type: cell-based; conditions: confocal fluorescence microscopy
Protocol: as §1, §2
For immunofluorescence experiments, 0.5 × 10^6 cells were seeded on borosilicate glass coverslips in 6-well plates. After 24 h, cells were transfected with 400 ng of each plasmid using the Qiagen Effectene transfection reagent according to the manufacturer protocol. 24 h after transfection, the cells were treated with 4% paraformaldehyde in PBS for 30 min at RT. Cells were permeabilized with 0.1% Triton X-100 in PBS (PBST) for 5 min at 21 °C, followed by blocking in 0.5% BSA in PBST for 1 h at 21 °C. Signal from GFP-tagged proteins was observed directly. […] All images were analyzed and prepared in Fiji ([53]).
All immunofluorescence data were averaged over three biological replicates. […] Next, the raw GFP intensity data points (one data point per cell analyzed) were plotted to generate a violin plot distribution. […]

In the case of “Pdx1: full-length human Pdx1 (amino acids 1-283) with a C-terminal GFP tag”, the “type of ubiquitination previously described” value (SPOP) is listed as “primarily monoubiquitination”, the “V5-SPOP localization, high Pdx1 expression” value (V5-SPOP in HeLa cells) is listed as “SPOP is diffuse” and the “V5-SPOP localization, high Pdx1 expression” value (V5-SPOP in HeLa cells; listed as WT–Pdx1) is listed as “primarily diffuse V5-SPOP”. The “V5-SPOP localization, low Pdx1 expression” value (V5-SPOP in HeLa cells) was “SPOP localizes to nuclear speckles”, the “V5-SPOP localization, low Pdx1 expression” value (V5-SPOP in HeLa cells; listed as WT–Pdx1) was “V5-SPOP localizes to nuclear speckles” and the “SPOP relocalization from nuclear speckles by Pdx1 variant” value (V5-SPOP in HeLa cells) was “relocalization of SPOP from nuclear speckles”. For the same substance, the “SPOP relocalization from nuclear speckles by Pdx1 variant” value (V5-SPOP in HeLa cells; listed as GFP–Pdx1–WT) was “SPOP relocalized from nuclear speckles into the diffuse nucleoplasm”, the “localization / phase separation in cells” value (HeLa cells) was “did not undergo observable partitioning to any nuclear body; also recorded: do not form phase-separated compartments in cells” and the “localization / phase separation in cells” value (HeLa cells; listed as GFP–Pdx1) was “does not localize to punctate structures in cells; also recorded: localizes to the nucleus (marked by DAPI, blue) and does not perturb the formation of or partition to nuclear speckles”.
